Assay results from patent US9458198B1, “Cyclic peptide-based NPR-B agonists” (priority 2009, dated 2016).
Read-outs that look alike come from different tables or passages of the source. Where a SMILES comes first, the peptide text is derived from it. Bridges are numbered along the chain shown (N, C = ends). [ ]: non-standard residue; d: D form. The star is where a group is joined. Hexanoyl = CCCCCC(=O)*

Experiments:
[1] = test system: human colon adenocarcinoma cells; settings: 1 mM, within 24 h; cited from earlier work
NPR-B = biological target: T1, NPR-B (Homo sapiens, UniProt P20594); assay: NPR-B induced production of cyclic GMP in GTM-3 cells; format: cell-based
T1 construct: a functional assay using endogenously NPR-B expressing GTM-3 cells; endogenous in cells; host or cells: GTM-3 (transformed human trabecular meshwork cells)
T1 sequence (P20594 23-1047): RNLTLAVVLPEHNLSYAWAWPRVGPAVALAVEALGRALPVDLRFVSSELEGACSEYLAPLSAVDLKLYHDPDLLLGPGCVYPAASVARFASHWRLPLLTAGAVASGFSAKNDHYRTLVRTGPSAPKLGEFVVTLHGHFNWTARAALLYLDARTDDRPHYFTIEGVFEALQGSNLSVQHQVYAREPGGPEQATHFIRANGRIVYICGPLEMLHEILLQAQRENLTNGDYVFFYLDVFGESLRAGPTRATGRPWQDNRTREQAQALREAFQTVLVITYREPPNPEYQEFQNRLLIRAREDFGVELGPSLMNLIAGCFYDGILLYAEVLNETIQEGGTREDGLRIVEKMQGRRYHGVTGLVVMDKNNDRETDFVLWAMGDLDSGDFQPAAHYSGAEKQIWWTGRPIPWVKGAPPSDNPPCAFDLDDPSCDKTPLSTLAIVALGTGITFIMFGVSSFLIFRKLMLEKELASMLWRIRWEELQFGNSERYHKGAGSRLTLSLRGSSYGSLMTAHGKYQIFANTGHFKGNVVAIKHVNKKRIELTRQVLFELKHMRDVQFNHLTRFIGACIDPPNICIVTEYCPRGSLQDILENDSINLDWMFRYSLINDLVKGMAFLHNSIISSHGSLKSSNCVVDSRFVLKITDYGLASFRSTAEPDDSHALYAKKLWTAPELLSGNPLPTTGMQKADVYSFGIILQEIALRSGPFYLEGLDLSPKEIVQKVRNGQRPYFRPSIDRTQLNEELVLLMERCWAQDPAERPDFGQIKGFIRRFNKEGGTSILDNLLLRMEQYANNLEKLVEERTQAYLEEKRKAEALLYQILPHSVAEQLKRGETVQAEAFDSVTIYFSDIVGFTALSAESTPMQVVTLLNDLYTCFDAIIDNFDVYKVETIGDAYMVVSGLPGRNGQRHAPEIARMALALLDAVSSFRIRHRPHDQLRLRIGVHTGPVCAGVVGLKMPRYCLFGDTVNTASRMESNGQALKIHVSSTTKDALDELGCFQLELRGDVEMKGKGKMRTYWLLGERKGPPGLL
In short: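 GTM-3 cells with endogenous NPR-B were washed and preincubated 15 min at room temperature in medium with 1 mM IBMX. Compounds were tested at final 45 μM to 20 nM; dose-dependent cGMP production gave Emax and EC50.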

[2] = Activity (group): NPR-B activation, EC50 and Emax (CNP = 100%), GTM-3 cells, group needs both EC50 and Emax criteria, checked A then B then C
[3] = GTM-3 cells, group needs both EC50 and Emax criteria, checked A then B then C, read-out: Activity (group): NPR-B activation, EC50 and Emax (CNP = 100%)

Row | Compound | EC50 (NPR-B; [3]) [µM] | also measured
1 | CC[C@H](C)[C@@H]1NC(=O)[C@H](CCCNC(=N)N)NC(=O)[C@H](CC(=O)O)NC(=O)[C@H](CCSC)NC(=O)[C@H](CCCNC(=N)N)NC(=O)CNC(=O)CNC(=O)[C@H](Cc2ccccc2)NC(=O)[C@@H](NC(=O)[C@H](CO)NC(=O)[C@H](CO)NC(=O)[C@H](CCCNC(=N)N)NC(=O)[C@H](CCCNC(=N)N)NC(=O)[C@H](CC(C)C)NC(=O)[C@@H](N)CO)CSSC[C@@H](C(=O)N[C@@H](CC(N)=O)C(=O)N[C@@H](CO)C(=O)N[C@@H](Cc2ccccc2)C(=O)N[C@@H](CCCNC(=N)N)C(=O)N[C@@H](Cc2ccc(O)cc2)C(=O)O)NC(=O)CNC(=O)[C@H](CC(C)C)NC(=O)CNC(=O)[C@H](CO)NC(=O)[C@H](CCC(N)=O)NC(=O)[C@H](C)NC(=O)CNC1=O [ANP, atrial natriuretic peptide] | – | decrease in cell number [1]: up to 97%
2 | CCCCCC(=O)N[C@H]1CSSC[C@@H](C(N)=O)NC(=O)[C@H](CO)NC(=O)[C@H]([C@@H](C)CC)NC(=O)[C@H](CCCNC(=N)N)NC(=O)[C@H](CC(=O)O)NC(=O)[C@H]([C@@H](C)CC)NC(=O)[C@@H]2CCCN2C(=O)[C@H](CC(C)C)NC(=O)CNC(=O)[C@H](Cc2ccccc2)NC(=O)[C@H]2CCCN2C1=O [compound 89] (Hexanoyl-C[dP]FGLPIDRISC-NH2; disulfide 1-12) | – | EC50 (NPR-B; [2]): < 1 µM
3 | CCCCCC(=O)N[C@H]1CSSC[C@@H](C(N)=O)NC(=O)[C@H](CO)NC(=O)[C@H]([C@@H](C)CC)NC(=O)[C@H](CCCNC(=N)N)NC(=O)[C@H](CC(=O)O)NC(=O)[C@H](CC(C)C)NC(=O)[C@H](CCCCN)NC(=O)[C@H](CC(C)C)NC(=O)CNC(=O)[C@H](Cc2ccccc2)NC(=O)[C@H]2CCCN2C1=O [compound 90] | < 1 | –
4 | CCCCCC(=O)N[C@H]1CSSC[C@@H](C(N)=O)NC(=O)[C@H](CO)NC(=O)[C@H]([C@@H](C)CC)NC(=O)[C@H](CCCNC(=N)N)NC(=O)[C@H](CC(=O)O)NC(=O)[C@H](CC(C)C)NC(=O)[C@@H]2CCCN2C(=O)[C@H](CC(C)C)NC(=O)CNC(=O)[C@H](Cc2ccccc2)NC(=O)[C@H]2CCCN2C1=O [compound 91] (Hexanoyl-C[dP]FGLPLDRISC-NH2; disulfide 1-12) | – | EC50 (NPR-B; [2]): < 1 µM
5 | CCCCCC(=O)N[C@H]1CSSC[C@@H](C(N)=O)NC(=O)[C@H](CO)NC(=O)[C@H]([C@@H](C)CC)NC(=O)[C@H](CCCNC(=N)N)NC(=O)[C@H](CC(=O)O)NC(=O)[C@H]([C@@H](C)CC)NC(=O)[C@H](CCCCN)NC(=O)[C@H](CC(C)C)NC(=O)CNC(=O)[C@H](Cc2ccccc2)NC(=O)[C@H]2CCCN2C1=O [compound 92] (Hexanoyl-C[dP]FGLKIDRISC-NH2; disulfide 1-12) | – | EC50 (NPR-B; Activity (group): NPR-B activation, EC50 and Emax (CNP = 100%)): < 1 µM
6 | CCCCCC(=O)N[C@H]1CSSC[C@@H](C(N)=O)NC(=O)[C@H](CO)NC(=O)[C@H]([C@@H](C)CC)NC(=O)[C@H](CCCNC(=N)N)NC(=O)[C@H](CC(=O)O)NC(=O)[C@H](CC(C)C)NC(=O)[C@@H]2CCCN2C(=O)[C@H](CC(C)C)NC(=O)CNC(=O)[C@H](Cc2ccccc2)NC(=O)[C@@H](C)NC1=O [compound 93] | – | EC50 (NPR-B; [2]): < 1 µM
7 | CCCCCC(=O)N[C@H]1CSSC[C@@H](C(N)=O)NC(=O)[C@H](CO)NC(=O)[C@H]([C@@H](C)CC)NC(=O)[C@H](CCCNC(=N)N)NC(=O)[C@H](CC(=O)O)NC(=O)[C@H](CC(C)C)NC(=O)[C@H](CCCCN)NC(=O)[C@H]([C@@H](C)O)NC(=O)CNC(=O)[C@H](Cc2ccccc2)NC(=O)[C@@H](C)NC1=O [compound 100] (Hexanoyl-C[dA]FGTKLDRISC-NH2; disulfide 1-12) | < 5 | –
8 | CCCCCC(=O)N[C@H]1CSSC[C@@H](C(N)=O)NC(=O)[C@H](CO)NC(=O)[C@H]([C@@H](C)CC)NC(=O)[C@H](CCCNC(=N)N)NC(=O)[C@H](CC(=O)O)NC(=O)[C@H](CC(C)C)NC(=O)[C@H](CCCCN)NC(=O)[C@H](C)NC(=O)CNC(=O)[C@H](Cc2ccccc2)NC(=O)[C@@H](C)NC1=O [compound 101] (Hexanoyl-C[dA]FGAKLDRISC-NH2; disulfide 1-12) | < 5 | –
9 | CCCCCC(=O)N[C@H]1CSSC[C@@H](C(N)=O)NC(=O)[C@H](CO)NC(=O)[C@H]([C@@H](C)CC)NC(=O)[C@H](CCCNC(=N)N)NC(=O)[C@H](CC(=O)O)NC(=O)[C@H](CC(C)C)NC(=O)[C@H](CCCCN)NC(=O)CNC(=O)CNC(=O)[C@H](Cc2ccccc2)NC(=O)[C@@H](C)NC1=O [compound 102] (Hexanoyl-C[dA]FGGKLDRISC-NH2; disulfide 1-12) | < 5 | –
10 | CCCCCC(=O)N[C@H]1CSSC[C@@H](C(N)=O)NC(=O)[C@H](CO)NC(=O)[C@H]([C@@H](C)CC)NC(=O)[C@H](CCCNC(=N)N)NC(=O)[C@H](CC(=O)O)NC(=O)[C@H](CC(C)C)NC(=O)[C@H](CCCCN)NC(=O)[C@H](CC(C)C)NC(=O)CNC(=O)[C@H](Cc2cccc(C(F)(F)F)c2)NC(=O)[C@@H](C)NC1=O [compound 105] | < 15 | –
11 | CCCCCC(=O)N[C@H]1CSSC[C@@H](C(N)=O)NC(=O)[C@H](CO)NC(=O)[C@H]([C@@H](C)CC)NC(=O)[C@H](Cc2ccc(C(=N)N)cc2)NC(=O)[C@H](CC(=O)O)NC(=O)[C@H](CC(C)C)NC(=O)[C@H](CCCCN)NC(=O)[C@H](CC(C)C)NC(=O)CNC(=O)[C@H](Cc2ccccc2)NC(=O)[C@@H](C)NC1=O [compound 112] | < 15 | –
12 | CCCCCC(=O)N[C@H]1CSSC[C@@H](C(N)=O)NC(=O)[C@H](CO)NC(=O)[C@H]([C@@H](C)CC)NC(=O)[C@H](CCNC(=N)N)NC(=O)[C@H](CC(=O)O)NC(=O)[C@H](CC(C)C)NC(=O)[C@H](CCCCN)NC(=O)[C@H](CC(C)C)NC(=O)CNC(=O)[C@H](Cc2ccccc2)NC(=O)[C@@H](C)NC1=O [compound 114] | < 15 | –
13 | CCCCCC(=O)N[C@H]1CSSC[C@@H](C(N)=O)NC(=O)[C@H](CO)NC(=O)C2(CCOCC2)NC(=O)[C@H](CCCNC(=N)N)NC(=O)[C@H](CC(=O)O)NC(=O)[C@H](CC(C)C)NC(=O)[C@H](CCCCN)NC(=O)[C@H](CC(C)C)NC(=O)CNC(=O)[C@H](Cc2ccccc2)NC(=O)[C@@H](C)NC1=O [compound 116] | < 15 | –
14 | CCCCCC(=O)N[C@H]1CSSC[C@@H](C(N)=O)NC(=O)[C@H](CO)NC(=O)C2(CCSCC2)NC(=O)[C@H](CCCNC(=N)N)NC(=O)[C@H](CC(=O)O)NC(=O)[C@H](CC(C)C)NC(=O)[C@H](CCCCN)NC(=O)[C@H](CC(C)C)NC(=O)CNC(=O)[C@H](Cc2ccccc2)NC(=O)[C@@H](C)NC1=O [compound 117] | < 15 | –
15 | CC[C@H](C)[C@@H]1NC(=O)[C@H](CCCNC(=N)N)NC(=O)[C@H](CC(=O)O)NC(=O)[C@H](CCSC)NC(=O)[C@H](CCCNC(=N)N)NC(=O)CNC(=O)CNC(=O)[C@H](Cc2ccccc2)NC(=O)[C@H](Cc2c[nH]cn2)NC(=O)[C@@H](NC(=O)[C@@H](N)CCSC)CSSC[C@@H](C(=O)N[C@@H](Cc2ccc(O)cc2)C(=O)N[C@@H](CCCNC(=N)N)C(N)=O)NC(=O)[C@H](CO)NC1=O [mini-ANP, reference compound] (H-MCHFGGRMDRISCYR-NH2; disulfide 2-13) | – | Emax (NPR-B; GTM3, GTM-3 cells, FIG. 2, CNP = 100%, read-out: Emax (maximum activation) relative to CNP): 0%; EC50 (NPR-B; GTM-3 cells, FIG. 2, highest concentration 45 μM, read-out: EC50, cyclic GMP production): > 45 µM
